Molecular target: T1, human muscarinic acetylcholine M1 receptor (hM1 mAChR) (Homo sapiens, UniProt P11229)
T1 sequence (P11229 1-460): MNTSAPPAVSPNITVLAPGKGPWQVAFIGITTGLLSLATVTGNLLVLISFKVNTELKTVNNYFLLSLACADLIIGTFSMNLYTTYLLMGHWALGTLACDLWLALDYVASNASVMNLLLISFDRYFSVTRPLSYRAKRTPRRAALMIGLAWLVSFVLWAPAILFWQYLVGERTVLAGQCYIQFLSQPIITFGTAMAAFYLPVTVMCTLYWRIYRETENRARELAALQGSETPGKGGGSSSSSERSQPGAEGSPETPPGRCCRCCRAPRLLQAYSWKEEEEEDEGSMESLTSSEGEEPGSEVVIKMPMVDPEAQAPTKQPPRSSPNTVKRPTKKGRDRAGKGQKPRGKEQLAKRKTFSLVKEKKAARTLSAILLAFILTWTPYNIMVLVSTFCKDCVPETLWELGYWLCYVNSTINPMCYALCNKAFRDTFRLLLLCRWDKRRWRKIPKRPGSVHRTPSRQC
Test: IP1 accumulation
Format: cell-based
Details: vehicle-pretreated control; orthosteric agonist; […]°C, […] h, pH […]

With C[N+](C)(C)CC#CCN1CCCC1=O [Oxo-M] the “pEC50^a” value was 6.08 ± 0.13.
